# Measurements published in patent US10647713B2 (Nimbus Lakshmi, Inc., priority 2016, dated 2020).
# Target: human TYK2 (JH2domain-pseudokinase) (Homo sapiens (Human), UniProt P29597)
# Experiment: TYK2 JH2 Domain Binding Assay (KINOMEscan, DiscoveRx)
# Details: 11-point dilution, duplicate
# Method in brief: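 TYK2 JH2 (G556–D888)–NFkB DBD fusion, DNA-tagged, from HEK293 extracts (<0.1 nM) competed against immobilised biotinylated ligand for 1 h at room temperature, 0.9% DMSO. Bead-retained kinase quantified by qPCR; Kd from 11-point 3-fold series (top 30,000 nM, duplicate), Hill fit with slope −1.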
# Sequence of human TYK2 (JH2domain-pseudokinase) (P29597 556-888): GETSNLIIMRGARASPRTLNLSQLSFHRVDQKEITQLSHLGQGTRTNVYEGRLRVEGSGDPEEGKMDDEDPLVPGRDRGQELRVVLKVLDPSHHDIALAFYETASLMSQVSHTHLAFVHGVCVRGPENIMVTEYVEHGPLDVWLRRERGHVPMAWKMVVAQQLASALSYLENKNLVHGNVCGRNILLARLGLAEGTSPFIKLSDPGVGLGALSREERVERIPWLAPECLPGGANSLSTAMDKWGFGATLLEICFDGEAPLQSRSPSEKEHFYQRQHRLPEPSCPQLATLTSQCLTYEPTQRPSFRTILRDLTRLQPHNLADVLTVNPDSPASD
row,Kd,Compound
1,1 to 10 nM,"Cc1nc2c(Nc3ccc(-c4oc(C)cc4C)cc3S(C)(=O)=O)cc(NC(=O)C3CC3)nc2[nH]1 [I-561, N-(7-((4-(3,5-dimethylfuran-2-yl)-2-(methylsulfonyl)phenyl)amino)-2-methyl-3H-imidazo[4,5-b]pyridin-5-yl)cyclopropanecarboxamide]"
2,1 to 10 nM,"Cc1ncc(Nc2cc(Nc3ccc(C4=NC(C)(C)CS4)cc3S(C)(=O)=O)c3nc(C(F)F)[nH]c3n2)nc1C [I-565, 2-(difluoromethyl)-N7-(4-(4,4-dimethyl-4,5-dihydrothiazol-2-yl)-2-(methylsulfonyl)phenyl)-N5-(5,6-dimethylpyrazin-2-yl)-3H-imidazo[4,5-b]pyridine-5,7-diamine]"
3,> 10 nM,"Cc1nc2c(Nc3ccc(C4=NC(C)(C)CS4)cc3S(C)(=O)=O)cc(NC(=O)[C@@H]3CC3(F)F)nc2[nH]1 [I-485, (S)—N-(7-((4-(4,4-dimethyl-4,5-dihydrothiazol-2-yl)-2-(methylsulfonyl)phenyl)amino)-2-methyl-3H-imidazo[4,5-b]pyridin-5-yl)-2,2-difluorocyclopropane-1-carboxamide]"
4,< 0.1 nM,"Cc1cc(Nc2cc(Nc3ccc(-c4nn(C)cc4C)cc3S(C)(=O)=O)c3nc(C(F)F)[nH]c3n2)nc(C)n1 [I-510, 2-(difluoromethyl)-N7-(4-(1,4-dimethyl-1H-pyrazol-3-yl)-2-(methylsulfonyl)phenyl)-N5-(2,6-dimethylpyrimidin-4-yl)-3H-imidazo[4,5-b]pyridine-5,7-diamine]"
5,0.1 to 0.5 nM,COCc1ccc(Nc2cc(Nc3ccccc3S(C)(=O)=O)c3nc(C(F)F)[nH]c3n2)nn1 [I-520]
6,1 to 10 nM,"COc1c(Nc2cc(Nc3cccc(C(F)(F)F)n3)nc3[nH]c(C)nc23)cccc1-c1ncnn1C [I-627, N7-(2-methoxy-3-(1-methyl-1H-1,2,4-triazol-5-yl)phenyl)-2-methyl-N5-(6-(trifluoromethyl)pyridin-2-yl)-3H-imidazo[4,5-b]pyridine-5,7-diamine]"
7,0.5 to 1 nM,"COc1c(Nc2cc(Nc3ccc4c(n3)C(F)(F)CC4)nc3[nH]c(C)nc23)cccc1-c1cnn(C)n1 [I-629, N5-(7,7-difluoro-6,7-dihydro-5H-cyclopenta[b]pyridin-2-yl)-N7-(2-methoxy-3-(2-methyl-2H-1,2,3-triazol-4-yl)phenyl)-2-methyl-3H-imidazo[4,5-b]pyridine-5,7-diamine]"
8,0.1 to 0.5 nM,CN=[S@](C)(=O)c1cc(-c2cnn(C)c2C)ccc1Nc1cc(NC(=O)C2CC2)nc2[nH]c(C(F)F)nc12 [I-638]
9,0.1 to 0.5 nM,"Cc1nc2c(Nc3ccc([C@@H]4CCCO4)cc3S(C)(=O)=O)cc(Nc3cccc(C#N)n3)nc2[nH]1 [I-570, (S)-6-((2-methyl-7-((2-(methylsulfonyl)-4-(tetrahydrofuran-2-yl)phenyl)amino)-3H-imidazo[4,5-b]pyridin-5-yl)amino)picolinonitrile]"

# The next lines start with the molecule.
row,Compound,Kd
1,"Cc1nc2c(Nc3ccc(C4CCC(C)(C)O4)cc3S(C)(=O)=O)cc(NC(=O)C3CC3)nc2[nH]1 (centres unmarked) [I-330, N-(7-((4-(5,5-dimethyltetrahydrofuran-2-yl)-2-(methylsulfonyl)phenyl)amino)-2-methyl-3H-imidazo[4,5-b]pyridin-5-yl)cyclopropanecarboxamide]",0.1 to 0.5 nM
2,"COc1c(Nc2cc(Nc3cc(F)c(N4CC(OC)C4)cn3)nc3[nH]c(C(F)F)nc23)cccc1-c1nc(C)nn1C [I-167, 2-(difluoromethyl)-N7-(3-(1,3-dimethyl-1H-1,2,4-triazol-5-yl)-2-methoxyphenyl)-N5-(4-fluoro-5-(3-methoxyazetidin-1-yl)pyridin-2-yl)-3H-imidazo[4,5-b]pyridine-5,7-diamine]",> 10 nM
3,"COc1c(Nc2cc(Nc3cnc(C(C)(C)OC)c(C#N)n3)nc3[nH]c(C(F)F)nc23)cccc1-c1nnn(C)n1 [I-80, 6-((2-(difluoromethyl)-7-((2-methoxy-3-(2-methyl-2H-tetrazol-5-yl)phenyl)amino)-3H-imidazo[4,5-b]pyridin-5-yl)amino)-3-(2-methoxypropan-2-yl)pyrazine-2-carbonitrile]",1 to 10 nM
4,"Cc1cnc(-c2ccc(Nc3cc(Nc4cc5n(n4)CCOC5)nc4[nH]c(C(F)F)nc34)c(S(C)(=O)=O)c2)s1 [I-495, 2-(difluoromethyl)-N5-(6,7-dihydro-4H-pyrazolo[5,1-c][1,4]oxazin-2-yl)-N7-(2-(methylsulfonyl)-4-(5-methylthiazol-2-yl)phenyl)-3H-imidazo[4,5-b]pyridine-5,7-diamine]",0.1 to 0.5 nM
5,CC1(C)CCC(c2ccc(Nc3cc(NC(=O)C4CC4)nc4[nH]c(C(F)F)nc34)c(S(C)(=O)=O)c2)O1 (centres unmarked) [I-332],0.1 to 0.5 nM
6,"Cc1ccc(Nc2cc(Nc3ccccc3N(C)S(C)(=O)=O)c3nc(C(F)F)[nH]c3n2)nn1 [I-43, N-(2-((2-(difluoromethyl)-5-((6-methylpyridazin-3-yl)amino)-3H-imidazo[4,5-b]pyridin-7-yl)amino)phenyl)-N-methylmethanesulfonamide]",0.1 to 0.5 nM
7,"COc1cc(-c2cncn2C)ccc1Nc1cc(Nc2cccc(C#N)n2)nc2[nH]c(C)nc12 [I-160, 6-((7-((2-methoxy-4-(1-methyl-1H-imidazol-5-yl)phenyl)amino)-2-methyl-3H-imidazo[4,5-b]pyridin-5-yl)amino)picolinonitrile]",1 to 10 nM
8,"COc1c(Nc2cc(Nc3cc(F)c(N4CC(OC)C4)cn3)nc3[nH]c(C)nc23)cccc1-c1nc(C)nn1C [I-168, N7-(3-(1,3-dimethyl-1H-1,2,4-triazol-5-yl)-2-methoxyphenyl)-N5-(4-fluoro-5-(3-methoxyazetidin-1-yl)pyridin-2-yl)-2-methyl-3H-imidazo[4,5-b]pyridine-5,7-diamine]",> 10 nM
9,"Cc1nc2c(Nc3ccc(Cl)cc3S(C)(=O)=O)cc(NC(=O)[C@H]3C[C@H]3F)nc2[nH]1 [I-192, (1R,2R)—N-(7-((4-chloro-2-(methylsulfonyl)phenyl)amino)-2-methyl-3H-imidazo[4,5-b]pyridin-5-yl)-2-fluorocyclopropane-1-carboxamide]",1 to 10 nM
10,"COc1c(Nc2cc(NC(=O)C3CC3)nc3[nH]c(C)nc23)cccc1-c1cnn(C)c1 [I-107, N-(7-((2-methoxy-3-(1-methyl-1H-pyrazol-4-yl)phenyl)amino)-2-methyl-3H-imidazo[4,5-b]pyridin-5-yl)cyclopropanecarboxamide]",1 to 10 nM
11,"COc1c(Nc2cc(NC(=O)C3CC3)nc3[nH]c(C(F)F)nc23)cccc1-c1c(C)nnn1C [I-146, N-(2-(difluoromethyl)-7-((3-(1,4-dimethyl-1H-1,2,3-triazol-5-yl)-2-methoxyphenyl)amino)-3H-imidazo[4,5-b]pyridin-5-yl)cyclopropanecarboxamide]",1 to 10 nM
12,"Cc1nc2c(Nc3ccc([C@@H]4CCCCO4)cc3S(C)(=O)=O)cc(Nc3cnc(C)c(C)n3)nc2[nH]1 [I-475, (S)—N5-(5,6-dimethylpyrazin-2-yl)-2-methyl-N7-(2-(methylsulfonyl)-4-(tetrahydro-2H-pyran-2-yl)phenyl)-3H-imidazo[4,5-b]pyridine-5,7-diamine]",0.1 to 0.5 nM
13,"Cc1nc(-c2ccc(Nc3cc(Nc4cc5n(n4)CCOC5)nc4[nH]c(C(F)F)nc34)c(S(C)(=O)=O)c2)sc1C [I-480, 2-(difluoromethyl)-N5-(6,7-dihydro-4H-pyrazolo[5,1-c][1,4]oxazin-2-yl)-N7-(4-(4,5-dimethylthiazol-2-yl)-2-(methylsulfonyl)phenyl)-3H-imidazo[4,5-b]pyridine-5,7-diamine]",0.1 to 0.5 nM
14,"CS(=O)(=O)c1cc([C@H]2CCCO2)ccc1Nc1cc(NC(=O)C2CC2)nc2[nH]c(C(F)F)nc12 [I-425, (R)—N-(2-(difluoromethyl)-7-((2-(methylsulfonyl)-4-(tetrahydrofuran-2-yl)phenyl)amino)-3H-imidazo[4,5-b]pyridin-5-yl)cyclopropanecarboxamide]",0.1 to 0.5 nM
15,"CS(=O)(=O)c1cc(C2CC2)ccc1Nc1cc(Nc2cc3n(n2)CCOC3)nc2[nH]c(C(F)F)nc12 [I-436, N7-(4-cyclopropyl-2-(methylsulfonyl)phenyl)-2-(difluoromethyl)-N5-(6,7-dihydro-4H-pyrazolo[5,1-c][1,4]oxazin-2-yl)-3H-imidazo[4,5-b]pyridine-5,7-diamine]",0.1 to 0.5 nM
16,"COC1CN(c2ccc(Nc3cc(NC(=O)C4CC4)nc4[nH]c(C(F)F)nc34)c(N(C)S(C)(=O)=O)c2)C1 [I-50, N-(2-(difluoromethyl)-7-((4-(3-methoxyazetidin-1-yl)-2-(N-methylmethylsulfonamido)phenyl)amino)-3H-imidazo[4,5-b]pyridin-5-yl)cyclopropanecarboxamide]",1 to 10 nM
17,"Cc1nc2c(Nc3ccc(-c4cncn4C)cc3S(C)(=O)=O)cc(NC(=O)C3CC3(F)F)nc2[nH]1 (centres unmarked) [I-382, 2,2-difluoro-N-(2-methyl-7-((4-(1-methyl-1H-imidazol-5-yl)-2-(methylsulfonyl)phenyl)amino)-3H-imidazo[4,5-b]pyridin-5-yl)cyclopropane-1-carboxamide]",0.1 to 0.5 nM
18,"C[S@@+]([O-])c1ccccc1Nc1cc(NC(=O)C2CC2)nc2[nH]c(C(F)F)nc12 [I-298, (R)—N-(2-(difluoromethyl)-7-((2-(methylsulfinyl)phenyl)amino)-3H-imidazo[4,5-b]pyridin-5-yl)cyclopropanecarboxamide]",> 10 nM
19,"COc1c(Nc2cc(Nc3cnc(N4CCOCC4)c(C#N)n3)nc3[nH]c(C(F)F)nc23)cccc1-c1nnn(C)n1 [I-47, 6-((2-(difluoromethyl)-7-((2-methoxy-3-(2-methyl-2H-tetrazol-5-yl)phenyl)amino)-3H-imidazo[4,5-b]pyridin-5-yl)amino)-3-morpholinopyrazine-2-carbonitrile]",1 to 10 nM
20,"Cc1nc2c(Nc3ccc(-c4ccn(C)n4)cc3S(C)(=O)=O)cc(NC(=O)[C@@H]3C[C@@H]3F)nc2[nH]1 [I-224, (1S,2S)-2-fluoro-N-(2-methyl-7-((4-(1-methyl-1H-pyrazol-3-yl)-2-(methylsulfonyl)phenyl)amino)-3H-imidazo[4,5-b]pyridin-5-yl)cyclopropane-1-carboxamide]",< 0.1 nM
